How the values were obtained:
[1] = test system: patients with psychogenic impotence; settings: nicotine e.g. by smoking
[2] = test system: patients with psychogenic impotence; settings: patients on liquid sublingual apomorphine 10 mg and 20 mg

O=c1[nH]c2ccccc2n1CCCN1CCC(n2c(=O)[nH]c3cc(Cl)ccc32)CC1 [Domperidone]
counteraction of adverse effects of the 5 mg apomorphine dose (nausea, diaphoresis, etc.) [1]: can be counteracted
counteraction of apomorphine adverse effects (nausea, vomiting, diaphoresis, etc.) [2]: can be counteracted

CN1CCCC1c1cccnc1 (stereo not drawn) [nicotine]
counteraction of adverse effects of the 5 mg apomorphine dose (nausea, diaphoresis, etc.) [1]: can be counteracted
